Assay results published in patent US9879029B2, “ERK inhibitors” (Eli Lilly and Company, priority 2014, dated 2018).

What was measured:
[1] = system: human non-small cell lung cancer cells NCI-H358; assay: Xenograft tumor model NCI-H358; assay type: in vivo, female athymic nude mice; settings: oral, p <0.001
Experimental: The purpose of this assay is to measure reduction in tumor volume in response to test compound administration. Expand human colorectal cancer cells HCT116 (ATCC, #CCL-247) or human non-small cell lung cancer cells NCI-H358 (ATCC, # CRL-5807) in culture, harvest and inject 5×10e^6 cells in 200 μL of 1:1 HBSS+matrigel solution subcutaneously on to the rear right flank of female athymic nude mice (22-25 gm, Harlan Laboratories). Expand human pancreatic cancer cells SW1990 (ATCC, # CRL-2172) in culture, harvest and inject 2×10e^6 cells in 200 μL of 1:1 HBSS+matrigel solution subcutaneously on to the rear right flank of female athymic nude mice (22-25 gm, Harlan Laboratories). Expand human pancreatic cancer cells MIA PACA-2 (ATCC, # CRL-1420) or human non-small cell lung cancer cells A549 (ATCC, # CCl-185) in culture, harvest and inject 5×10e^6 cells in 200 μL of 1:1 HBSS+matrigel solution subcutaneously on to the rear right flank of female CB-17 SCID mice (22-25 gm, Charles River Laboratories International Inc.). Expand human melanoma cells A-375 (ATCC, # CRL-1619) in culture, harvest and inject 5×10e^6 cells in 200 μL of 1:1 HBSS+matrigel solution subcutaneously on to the rear right flank of female NIH nude rats (140-160 gm, Taconic Farms). […] Tumor response is determined by tumor volume measurement performed twice a week during the course of treatment.

[2] = system: human pancreatic cancer cells MIA PACA-2; assay: Xenograft tumor model MIA PACA-2; assay type: in vivo, female CB-17 SCID mice; settings: oral, p <0.001
Experimental: The purpose of this assay is to measure reduction in tumor volume in response to test compound administration. Expand human colorectal cancer cells HCT116 (ATCC, #CCL-247) or human non-small cell lung cancer cells NCI-H358 (ATCC, # CRL-5807) in culture, harvest and inject 5×10e^6 cells in 200 μL of 1:1 HBSS+matrigel solution subcutaneously on to the rear right flank of female athymic nude mice (22-25 gm, Harlan Laboratories). Expand human pancreatic cancer cells SW1990 (ATCC, # CRL-2172) in culture, harvest and inject 2×10e^6 cells in 200 μL of 1:1 HBSS+matrigel solution subcutaneously on to the rear right flank of female athymic nude mice (22-25 gm, Harlan Laboratories). Expand human pancreatic cancer cells MIA PACA-2 (ATCC, # CRL-1420) or human non-small cell lung cancer cells A549 (ATCC, # CCl-185) in culture, harvest and inject 5×10e^6 cells in 200 μL of 1:1 HBSS+matrigel solution subcutaneously on to the rear right flank of female CB-17 SCID mice (22-25 gm, Charles River Laboratories International Inc.). Expand human melanoma cells A-375 (ATCC, # CRL-1619) in culture, harvest and inject 5×10e^6 cells in 200 μL of 1:1 HBSS+matrigel solution subcutaneously on to the rear right flank of female NIH nude rats (140-160 gm, Taconic Farms). Measure tumor growth and body weight twice per week beginning the seventh day after the implantation. When tumor sizes reach 200-400 mm^3, randomize animals and group into groups of eight to ten animals. Prepare test compound in an appropriate vehicle (vehicle: 1% HEC/0.25% Tween 80/0.05% Antifoam) and administer by oral gavage for 14 to 28 days. Tumor response is determined by tumor volume measurement performed twice a week during the course of treatment.

[3] = biological target: T1, ERK2 (Homo sapiens, UniProt P28482); assay: ERK2 kinase assay (TR-FRET); assay type: biochemical; settings: Abs_IC50, ATP 10 μM; ±0.682, n=17
T1 construct: purchased Invitrogen PV3595B
T1 sequence (P28482 whole entry): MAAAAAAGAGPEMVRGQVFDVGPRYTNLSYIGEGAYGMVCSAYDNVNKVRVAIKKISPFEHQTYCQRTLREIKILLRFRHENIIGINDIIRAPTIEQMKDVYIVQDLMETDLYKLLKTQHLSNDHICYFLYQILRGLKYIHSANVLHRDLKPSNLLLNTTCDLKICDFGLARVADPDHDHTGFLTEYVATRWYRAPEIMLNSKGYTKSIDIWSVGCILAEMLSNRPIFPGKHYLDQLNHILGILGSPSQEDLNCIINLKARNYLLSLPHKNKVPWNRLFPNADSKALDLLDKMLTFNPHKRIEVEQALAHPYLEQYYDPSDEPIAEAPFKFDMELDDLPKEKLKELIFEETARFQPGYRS
Experimental: The purpose of this assay is to measure the ability of compounds to inhibit ERK2 kinase activity. Perform the ERK2 kinase assay in vitro using a TR-FRET assay. Start all reactions (12.5 μL) by adding 5 µL of ERK2 enzyme (Invitrogen, #PV3595B, final conc 50 ng/mL) plus substrate GFP-ATF2 (Invitrogen, #PV4445, final conc 0.2 μM), 5 µL of ATP solution (Invitrogen, #PV3227, final conc 10 μM) prepared in kinase buffer (50 mM Hepes pH 7.4, 5 mM MgCl2, 0.1 mM EGTA, 0.01% Triton X-100, 1 mM DTT) and 2.5 μL of testing compounds in DMSO solution ([…], v/v) in a 384-well PROXIPLATE™ (Perkin Elmer, #GRN6260). Incubate reactions at room temperature for 60 minutes. Stop reactions by addition of […] of stop buffer (10 mM EDTA, 2 nM Tb-anti-pATF2 (pThr71) antibody, Invitrogen, #PV4448) in TR-FRET dilution buffer (Invitrogen, # PV3574). Incubate the plates at room temperature for an additional 60 minutes and read ON ENVISION® (PerkinElmer) plate reader at the excitation wavelength of 340 nm. Calculate a TR-FRET ratio by dividing the GFP acceptor emission signal (at 520 nm) by the Tb donor emission signal (at 495 nm). Calculate percent inhibition using compound wells relative to on-plate Max (DMSO control) and Min (No enzyme added) control wells TR-FRET ratio data {% inhibition=100−[(test compound−median Min)/(median Max−Min)×100]}. […]

For `COCCN1C(=O)c2cc(-c3ccnc(Nc4ccnn4C)c3)sc2C1(C)C` [Example 1, 5-(2-Methoxyethyl)-6,6-dimethyl-2-{2-[(1-methyl-1H-pyrazol-5-yl)amino]pyridin-4-yl}-5,6-dihydro-4H-thieno[2,3-c]pyrrol-4-one], the “Regression (%)” value ([1]; NCI-H358, 25 mg/kg BID) was −13%, the “Regression (%)” value ([1]; NCI-H358, 50 mg/kg BID) was −35% and the “Delta T/C (%)” value ([2]; MIA PACA-2, 10 mg/kg BID) was 76%. For the same compound, the “Regression (%)” value ([2]; MIA PACA-2, 25 mg/kg BID) was −15%, the “Delta T/C (%)” value ([2]; MIA PACA-2, 25 mg/kg QD) was 74% and the “Regression (%)” value ([2]; MIA PACA-2, 50 mg/kg BID) was −72%. The “Delta T/C (%)” value ([2]; MIA PACA-2, 50 mg/kg QD) was 97%, the “Regression (%)” value ([2]; MIA PACA-2, 75 mg/kg QD) was −39% and the IC50 [3] was 1.93 nM.
